Test results taken from patent US7699801B2, “Advanced genetic vaccines” (priority 1995, dated 2010).

System: human carcino embryonic antigen (CEA)
Test: CEA-specific IgG1/IgG2a serum antibody ELISA after particle-mediated DNA immunization
Format: in vivo, mouse
Conditions: Balb/c mice, sera four weeks after treatment
Text: The adjuvant and the nucleic acid molecule containing the sequence encoding the antigen of interest were co-administered via particle-mediated delivery using a gene gun. The particular antigen used for this example was the human carcino embryonic antigen (“CEA”), a human tumor antigen widely used in experiments investigating cancer therapeutic treatments. […] Without an adjuvant, Th2 type CEA-specific antibodies (IgG1) are detected at levels more than twenty-fold higher than the levels of Th1 type CEA-specific antibodies (IgG2a) in Balb/c mice.
For this protocol, a plasmid construct containing a coding region for the CEA antigen under the control of the cytomegalovirus immediate early promoter (CMV) with the CMV intron A between the promoter and the coding region was used. To form the composition, 64 μg of the plasmid, which was designated WRG7083, in 120 μL of water was added to 32 milligrams of 0.9 micron gold beads in an Eppendorf tube, i.e., 2 μg DNA/mg gold. Next, 13.5 μL of ammonium acetate solution and 135 μL of isopropanol were added, and the tube was vortexed briefly. The mixture was incubated for 15 minutes at −20° C. to precipitate the DNA onto the gold. The DNA coated beads were pelleted by a ten second spin and the supernatants were removed. The gold/DNA pellets were washed four times by vortexing in 1 mL ethanol, microfuging ten seconds, and removing supernatants. […]

human carcino embryonic antigen (CEA), sequence (P06731 35-676): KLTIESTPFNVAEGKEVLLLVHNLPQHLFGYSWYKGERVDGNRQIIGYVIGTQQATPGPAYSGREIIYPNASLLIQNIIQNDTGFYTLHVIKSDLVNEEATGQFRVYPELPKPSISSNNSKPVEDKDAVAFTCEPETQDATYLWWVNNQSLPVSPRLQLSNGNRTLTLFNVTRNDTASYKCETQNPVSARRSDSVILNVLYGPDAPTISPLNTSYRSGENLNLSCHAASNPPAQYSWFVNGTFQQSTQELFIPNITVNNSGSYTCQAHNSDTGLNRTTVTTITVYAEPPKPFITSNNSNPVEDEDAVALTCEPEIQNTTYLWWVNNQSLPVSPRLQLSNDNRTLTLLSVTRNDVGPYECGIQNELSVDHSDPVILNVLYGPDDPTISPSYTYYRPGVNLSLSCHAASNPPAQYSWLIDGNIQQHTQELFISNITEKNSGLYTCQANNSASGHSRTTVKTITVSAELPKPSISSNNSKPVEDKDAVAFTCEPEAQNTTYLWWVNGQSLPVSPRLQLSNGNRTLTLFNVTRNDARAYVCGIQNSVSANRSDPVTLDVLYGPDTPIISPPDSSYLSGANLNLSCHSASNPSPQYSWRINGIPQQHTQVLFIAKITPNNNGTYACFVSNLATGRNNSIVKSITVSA

Question: With monophosphoryl lipid A [MPL] as the substance, how does the “ratio of IgG1 to IgG2a CEA-specific antibodies” value (0.2 mg/mL MPL on WRG7083 DNA-coated gold particles, gene gun delivery) read?
Answer: Its value is 4.5.

Question: What about the “ratio of IgG1 to IgG2a CEA-specific antibodies” value (MPL stock swabbed on skin prior to gene gun delivery of WRG7083 DNA) of the same substance?
Answer: The value was “about 4.0”.
